From patent US20110319416A1, “Subunit Selective NMDA Receptor Antagonists For The Treatment Of Neurological Conditions” (EMORY UNIVERSITY, priority 2009, published 2011)
Where two headings read alike, the source gives them in different places.

How the values were obtained:
Assay type in all cases: cell-based
NR1/NR2A = NR1/NR2A (Rattus norvegicus, UniProt P35439+Q00959); test: Two electrode voltage clamp, Xenopus oocytes expressing recombinant NR1/NR2A; conditions: for IC50: logistic fit, minimum forced to 0, read-out: 2A IC50
Chain of NR1/NR2A (Q00959 23-1464, other chains not shown): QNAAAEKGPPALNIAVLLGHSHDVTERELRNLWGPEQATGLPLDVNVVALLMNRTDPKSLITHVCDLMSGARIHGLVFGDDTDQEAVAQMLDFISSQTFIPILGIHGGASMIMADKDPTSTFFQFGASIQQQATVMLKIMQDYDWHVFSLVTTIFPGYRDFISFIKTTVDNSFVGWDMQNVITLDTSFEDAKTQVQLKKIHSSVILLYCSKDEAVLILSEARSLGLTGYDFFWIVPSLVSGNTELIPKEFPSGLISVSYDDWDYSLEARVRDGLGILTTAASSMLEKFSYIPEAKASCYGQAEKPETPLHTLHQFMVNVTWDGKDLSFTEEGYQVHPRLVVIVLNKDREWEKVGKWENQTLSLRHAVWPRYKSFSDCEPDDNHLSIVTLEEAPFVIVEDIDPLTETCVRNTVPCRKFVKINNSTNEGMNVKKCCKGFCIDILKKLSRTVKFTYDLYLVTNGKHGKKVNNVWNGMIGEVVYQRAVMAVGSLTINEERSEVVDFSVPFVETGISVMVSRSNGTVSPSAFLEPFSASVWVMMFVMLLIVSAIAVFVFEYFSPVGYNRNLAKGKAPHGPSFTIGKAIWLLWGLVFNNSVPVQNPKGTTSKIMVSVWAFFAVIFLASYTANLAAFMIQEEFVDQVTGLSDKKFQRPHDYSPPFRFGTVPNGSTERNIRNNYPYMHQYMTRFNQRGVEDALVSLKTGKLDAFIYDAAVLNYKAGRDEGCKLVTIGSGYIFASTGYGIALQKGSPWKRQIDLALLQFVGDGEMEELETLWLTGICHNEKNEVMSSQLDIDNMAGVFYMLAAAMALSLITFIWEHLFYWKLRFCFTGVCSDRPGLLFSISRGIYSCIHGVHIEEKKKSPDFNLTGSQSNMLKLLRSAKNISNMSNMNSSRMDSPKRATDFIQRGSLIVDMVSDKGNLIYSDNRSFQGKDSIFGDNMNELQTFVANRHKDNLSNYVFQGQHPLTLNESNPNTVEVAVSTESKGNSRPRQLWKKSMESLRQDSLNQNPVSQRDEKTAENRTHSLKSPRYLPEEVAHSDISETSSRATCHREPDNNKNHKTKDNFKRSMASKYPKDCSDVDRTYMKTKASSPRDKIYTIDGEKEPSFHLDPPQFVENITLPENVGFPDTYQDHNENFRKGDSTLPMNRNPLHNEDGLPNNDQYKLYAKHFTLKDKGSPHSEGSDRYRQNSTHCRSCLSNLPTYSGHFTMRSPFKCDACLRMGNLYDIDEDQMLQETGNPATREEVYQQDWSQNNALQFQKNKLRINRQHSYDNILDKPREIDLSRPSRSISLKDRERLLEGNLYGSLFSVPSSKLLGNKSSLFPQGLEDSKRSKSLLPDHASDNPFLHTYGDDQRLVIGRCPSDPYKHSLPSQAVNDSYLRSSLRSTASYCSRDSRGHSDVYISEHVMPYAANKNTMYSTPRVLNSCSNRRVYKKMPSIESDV
Procedure: (§1) Quality of synthesized cRNA was assessed by gel electrophoresis, and quantity was estimated by spectroscopy and gel electrophoresis. Stage V and VI oocytes were surgically removed from the ovaries of large, well-fed and healthy Xenopus laevis anesthetized with 3-amino-benzoic acid ethyl ester (3 gm/l) as previously described. Clusters of isolated oocytes were incubated with 292 U/ml Worthington (Freehold, N.J.) type IV collagenase or 1.3 mg/ml collagenase (Life Technologies, Gaithersburg, MD; 17018-029) for 2 hr in Ca^2+-free solution comprised of (in mM) 115 NaCl, 2.5 KCl, and 10 HEPES, pH 7.5, with slow agitation to remove the follicular cell layer. Oocytes were then washed extensively in the same solution supplemented with 1.8 mM CaCl2 and maintained in Barth's solution comprised of (in mM): 88 NaCl, 1 KCl, 2.4 NaHCO3, 10 HEPES, 0.82 MgSO4, 0.33 Ca(NO3)2, and 0.91 CaCl2 and supplemented with 100 μg/m1 gentamycin, 10 μg/ml streptomycin, and 10 μg/ml penicillin. Oocytes were manually defolliculated and injected within 24 hrs of isolation with 3-5 ng of NR1 subunit cRNA and 7-10 ng of NR2 cRNA subunit in a 50 nl volume, or 5-10 ng of AMPA or kainate receptor cRNAs in a 50 nl volume, and incubated in Barth's solution at 18° C. for 1-7 d. Glass injection pipettes had tip sizes ranging from 10-20 microns, and were backfilled with mineral oil.
(§2) Two electrode voltage-clamp recordings were made 2-7 days post-injection as previously described. Oocytes were placed in a dual-track plexi-glass recording chamber with a single perfusion line that splits in a Y-configuration to perfuse two oocytes. Dual recordings were made at room temperature (23° C.) using two Warner OC725B two-electrode voltage clamp amplifiers, arranged as recommended by the manufacturer. Glass microelectrodes (1-10 Megaohms) were filled with 300 mM KCl (voltage electrode) or 3 M KCl (current electrode). The bath clamps communicated across silver chloride wires placed into each side of the recording chamber, both of which were assumed to be at a reference potential of 0 mV. Oocytes were perfused with a solution comprised of (in mM) 90 NaCl, 1 KCl, 10 HEPES, and 0.5 BaCl2; pH was adjusted by addition of 1-3 M NaOH of HC1 to 7.4. Oocytes were recorded under voltage clamp at −40 mV. […] In some experiments, 10 μM EDTA was obtained by adding a 1:1000 dilution of 10 mM EDTA, in order to chelate contaminant divalent ions such as Zn^2+. […] Concentration effect curves consisting of 4 to 8 concentrations were obtained in this manner. The baseline leak current at −40 mV was measured before and after recording, and the full recording linearly corrected for any change in leak current. […] Each experiment consisted of recordings from 3 to 10 oocytes obtained from a single frog. Results from multiple experiments were pooled, and the average percent responses at antagonist concentrations were fitted by the equation,
(§3) Percent Response=(100−minimum)/(1+([conc]/IC50)nH)+minimum

NR1/NR2D = NR1/NR2D (Rattus norvegicus, UniProt P35439+Q62645); test: Two electrode voltage clamp, Xenopus oocytes expressing recombinant NR1/NR2D; conditions: for remaining activity at 100 µM: read-out: 2D percent effect at the maximum tested concentration
Chain of NR1/NR2D (Q62645 28-1323, other chains not shown): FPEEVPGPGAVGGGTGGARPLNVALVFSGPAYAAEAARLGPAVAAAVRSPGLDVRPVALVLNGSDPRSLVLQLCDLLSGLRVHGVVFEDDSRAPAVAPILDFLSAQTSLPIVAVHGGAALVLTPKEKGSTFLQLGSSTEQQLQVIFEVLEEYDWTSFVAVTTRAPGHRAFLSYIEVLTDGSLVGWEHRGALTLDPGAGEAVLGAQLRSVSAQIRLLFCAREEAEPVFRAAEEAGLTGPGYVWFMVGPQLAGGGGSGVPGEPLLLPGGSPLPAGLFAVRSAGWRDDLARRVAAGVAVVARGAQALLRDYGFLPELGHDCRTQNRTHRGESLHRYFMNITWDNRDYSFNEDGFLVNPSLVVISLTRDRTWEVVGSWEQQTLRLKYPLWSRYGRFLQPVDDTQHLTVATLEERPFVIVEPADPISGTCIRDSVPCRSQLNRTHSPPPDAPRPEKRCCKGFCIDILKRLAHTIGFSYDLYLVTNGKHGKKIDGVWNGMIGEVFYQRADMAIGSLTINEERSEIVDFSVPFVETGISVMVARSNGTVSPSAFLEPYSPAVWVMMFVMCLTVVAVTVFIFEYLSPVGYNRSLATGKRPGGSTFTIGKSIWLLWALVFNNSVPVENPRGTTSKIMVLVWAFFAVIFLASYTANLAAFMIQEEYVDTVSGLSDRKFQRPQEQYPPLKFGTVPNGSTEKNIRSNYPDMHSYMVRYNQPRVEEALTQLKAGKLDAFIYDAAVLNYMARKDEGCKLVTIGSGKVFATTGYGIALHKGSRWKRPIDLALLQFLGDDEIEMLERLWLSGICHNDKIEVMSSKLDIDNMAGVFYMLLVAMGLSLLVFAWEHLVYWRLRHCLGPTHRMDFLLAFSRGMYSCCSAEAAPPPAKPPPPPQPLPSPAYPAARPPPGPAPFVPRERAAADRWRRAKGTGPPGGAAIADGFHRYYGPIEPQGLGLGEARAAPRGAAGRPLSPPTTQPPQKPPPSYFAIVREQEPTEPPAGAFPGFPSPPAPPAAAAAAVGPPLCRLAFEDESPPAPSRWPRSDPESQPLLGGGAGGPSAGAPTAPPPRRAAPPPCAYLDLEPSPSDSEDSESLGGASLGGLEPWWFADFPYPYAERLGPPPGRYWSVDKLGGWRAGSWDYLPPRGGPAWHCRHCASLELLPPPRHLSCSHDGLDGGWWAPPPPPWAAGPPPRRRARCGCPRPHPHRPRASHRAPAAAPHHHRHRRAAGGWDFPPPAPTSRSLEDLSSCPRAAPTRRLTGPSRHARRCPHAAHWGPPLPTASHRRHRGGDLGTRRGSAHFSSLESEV
Procedure: as §1, §2, §3

NR1/NR2C = NR1/NR2C (Rattus norvegicus, UniProt P35439+Q00961); test: Two electrode voltage clamp, Xenopus oocytes expressing recombinant NR1/NR2C; conditions: for remaining activity at 100 µM: read-out: 2C percent effect at the maximum tested concentration
Chain of NR1/NR2C (Q00961 20-1237, other chains not shown): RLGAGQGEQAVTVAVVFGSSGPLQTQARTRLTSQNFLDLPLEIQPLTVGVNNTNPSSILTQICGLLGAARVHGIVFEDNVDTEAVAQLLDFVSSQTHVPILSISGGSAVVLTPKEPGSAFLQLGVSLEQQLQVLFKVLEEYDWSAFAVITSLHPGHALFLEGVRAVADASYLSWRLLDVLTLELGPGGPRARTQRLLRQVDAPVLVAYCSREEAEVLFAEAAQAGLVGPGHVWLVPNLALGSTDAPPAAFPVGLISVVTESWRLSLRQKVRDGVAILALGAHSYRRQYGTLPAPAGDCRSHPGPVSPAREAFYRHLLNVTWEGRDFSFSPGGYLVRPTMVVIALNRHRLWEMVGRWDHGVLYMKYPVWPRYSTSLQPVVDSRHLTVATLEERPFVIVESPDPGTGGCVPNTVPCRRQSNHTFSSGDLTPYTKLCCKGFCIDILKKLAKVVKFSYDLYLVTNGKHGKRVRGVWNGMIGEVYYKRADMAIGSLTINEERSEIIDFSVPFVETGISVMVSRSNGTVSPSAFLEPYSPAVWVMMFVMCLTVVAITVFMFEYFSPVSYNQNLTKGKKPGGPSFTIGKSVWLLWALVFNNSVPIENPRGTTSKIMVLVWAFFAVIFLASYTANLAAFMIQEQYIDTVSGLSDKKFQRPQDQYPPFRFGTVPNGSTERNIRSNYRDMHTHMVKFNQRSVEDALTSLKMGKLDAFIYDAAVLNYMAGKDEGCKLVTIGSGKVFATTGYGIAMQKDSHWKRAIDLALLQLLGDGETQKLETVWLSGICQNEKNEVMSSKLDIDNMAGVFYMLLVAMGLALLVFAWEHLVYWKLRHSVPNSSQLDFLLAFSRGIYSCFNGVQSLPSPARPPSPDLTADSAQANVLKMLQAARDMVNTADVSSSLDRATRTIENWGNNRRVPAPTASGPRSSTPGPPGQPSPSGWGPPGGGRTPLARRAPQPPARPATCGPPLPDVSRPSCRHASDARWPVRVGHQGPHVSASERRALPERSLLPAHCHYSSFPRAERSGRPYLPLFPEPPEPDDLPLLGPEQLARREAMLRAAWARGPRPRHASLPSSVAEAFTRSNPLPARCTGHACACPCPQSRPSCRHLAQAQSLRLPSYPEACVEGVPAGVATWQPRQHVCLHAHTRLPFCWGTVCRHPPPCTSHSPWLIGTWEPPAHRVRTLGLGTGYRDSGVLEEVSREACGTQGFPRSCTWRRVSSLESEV
Procedure: as §1, §2, §3

NR1/NR2B = NR1/NR2B (Rattus norvegicus, UniProt P35439+Q00960); test: Two electrode voltage clamp, Xenopus oocytes expressing recombinant NR1/NR2B
Procedure: as §1, §2, §3

[1] = logistic fit, minimum forced to 0, read-out: 2D IC50
[2] = logistic fit, minimum forced to 0, read-out: 2C IC50
[3] = read-out: 2A percent effect at the maximum tested concentration
[4] = at 100 μM, read-out: 2A percent effect at the maximum tested concentration
[5] = logistic fit, minimum forced to 0, read-out: 2B IC50
[6] = at 100 μM, read-out: 2B percent effect at the maximum tested concentration
[7] = read-out: 2B percent effect at the maximum tested concentration

Structure (SMILES)	IC50 (NR1/NR2D; [1]) [µM]	remaining activity at 100 µM (NR1/NR2A; [4]) [%]	remaining activity at 100 µM (NR1/NR2D) [%]	remaining activity at 100 µM (NR1/NR2B; [6]) [%]	remaining activity at 100 µM (NR1/NR2C) [%]	further results
CCN(CC)C(=S)Oc1ccc(C(=O)Nc2ccc3ccccc3c2)cc1 [1063-0]	91					remaining activity at 30 µM (NR1/NR2A; at 30 μM, read-out: 2A percent effect at the maximum tested concentration): 101%; IC50 (NR1/NR2C; [2]): 243 µM; remaining activity at 30 µM (NR1/NR2B; at 30 μM, read-out: 2B percent effect at the maximum tested concentration): 99%
CN(C)C(=O)Oc1ccc(C(=O)Nc2cccc3ccccc23)cc1 [1063-3]						remaining activity at 100 µM (NR1/NR2A; [3]): 110%; IC50 (NR1/NR2D): 194 µM; IC50 (NR1/NR2C): 619 µM; IC50 (NR1/NR2B): 1450 µM
O=C(Nc1cccc2ccccc12)c1ccc(OC(=O)N2CCCC2)cc1 [1063-6]	257	87				IC50 (NR1/NR2C; [2]): 135 µM; IC50 (NR1/NR2B; [5]): 502 µM
O=C(Nc1cccc2ccccc12)c1ccc(OC(=O)N2CCCCC2)cc1 [1063-7]		135	84	98		
CCCCN(CCCC)C(=O)Oc1ccc(C(=O)Nc2cccc3ccccc23)cc1 [1063-8]		135	87	88		
CCC(CC)C(=O)Oc1ccc(C(=O)Nc2cccc3ccccc23)cc1 [1063-9]		111	86	98	94	
O=C(Nc1cccc2ccccc12)c1ccc(OC(=O)C2CC2)cc1 [1063-10]		111	81	92	86	
CCN(CC)C(=O)Nc1ccc(C(=O)Nc2cccc3ccccc23)cc1 [1063-11]	527	102		88		IC50 (NR1/NR2C; [2]): 687 µM
CCN(CC)C(=S)Oc1ccc(C(=O)Nc2ccc(Cl)c3ccccc23)cc1 [1063-12]	100	92		80		IC50 (NR1/NR2C; [2]): 25 µM
CC(C)N(C(=O)Oc1ccc(C(=O)Oc2cccc3c(N)cccc23)cc1)C(C)C [1063-14]		104	75	95	85	
CC(C)N(C(=O)Oc1ccc(C(=O)Nc2ccc3cc[nH]c3c2)cc1)C(C)C [1063-15]						remaining activity at 100 µM (NR1/NR2A; [3]): 74%; IC50 (NR1/NR2D): 12 µM; IC50 (NR1/NR2C): 11 µM; IC50 (NR1/NR2B): 44 µM
CC(C)N(C(=O)Oc1ccc(C(=O)Nc2ccc3[nH]ccc3c2)cc1)C(C)C [1063-16]						remaining activity at 100 µM (NR1/NR2A; [3]): 100%; IC50 (NR1/NR2D): 44 µM; IC50 (NR1/NR2C): 30 µM; remaining activity at 100 µM (NR1/NR2B; [7]): 81%
CCN(CC)C(=O)Oc1ccc(C(=O)Nc2cc(C)cc(C)c2)cc1 [1063-17]						remaining activity at 100 µM (NR1/NR2A; [3]): 79%; IC50 (NR1/NR2D): 8 µM; IC50 (NR1/NR2C): 18 µM; IC50 (NR1/NR2B): 89 µM
CCN(CC)C(=O)Oc1ccc(C(=O)Nc2cccc3c2CCCC3)cc1 [1063-18]						remaining activity at 100 µM (NR1/NR2A; [3]): 95%; IC50 (NR1/NR2D): 20 µM; IC50 (NR1/NR2C): 23 µM; IC50 (NR1/NR2B): 214 µM
CCN(CC)C(=O)Oc1ccc(C(=O)Nc2ccc3c(c2)CCCC3)cc1 [1063-19]						remaining activity at 100 µM (NR1/NR2A; [3]): 89%; IC50 (NR1/NR2D): 26 µM; IC50 (NR1/NR2C): 58 µM; remaining activity at 100 µM (NR1/NR2B; [7]): 74%
O=C(Nc1cccc2ccccc12)c1ccc(Oc2nc(-c3ccccc3)cs2)cc1 [1063-22]		96	88	91	92	

Structure (SMILES)	IC50 (NR1/NR2D; [1]) [µM]	remaining activity at 100 µM (NR1/NR2A; [4]) [%]	remaining activity at 100 µM (NR1/NR2D) [%]	remaining activity at 100 µM (NR1/NR2B; [6]) [%]	remaining activity at 100 µM (NR1/NR2C) [%]	further results
O=C(Nc1cccc2ccccc12)c1ccc(Oc2nc3ccccc3s2)cc1 [1063-23]		91	91	85	89	
CCN(CC)C(=O)Oc1cccc(C(=O)Nc2cccc3ccccc23)c1 [1063-24]		84	84	95	93	
CCN(CC)C(=O)Oc1ccccc1C(=O)Nc1cccc2ccccc12 [1063-25]		88	91	88	83	
CCN(CC)C(=O)Oc1ccc(C(=O)Nc2cccc3[nH]ccc23)cc1 [1063-26]						remaining activity at 100 µM (NR1/NR2A; [3]): 88%; IC50 (NR1/NR2D): 6 µM; IC50 (NR1/NR2C): 8 µM; IC50 (NR1/NR2B): 560 µM
CCN(CC)C(=O)c1ccc(C(=O)Nc2cccc3cc[nH]c23)cc1 [1063-27]			82	83	93	IC50 (NR1/NR2A): 497 µM
O=C(O)c1ccc(C(=O)Nc2cccc3cc[nH]c23)cc1 [1063-28]			89	95	98	IC50 (NR1/NR2A): 245 µM
Cn1c(=O)oc2ccc(C(=O)Nc3cccc4ccccc34)cc21 [1063-29]		92	75	81	80	
CCN(C)C(=O)Oc1ccc(C(=O)Nc2cccc3cc[nH]c23)cc1 [1063-30]						remaining activity at 100 µM (NR1/NR2A; [3]): 89%; IC50 (NR1/NR2D): 56 µM; IC50 (NR1/NR2C): 72 µM; remaining activity at 100 µM (NR1/NR2B; [7]): 71%
O=C(Nc1cccc2ccccc12)c1ccc2oc(=O)[nH]c2c1 [1063-31]	366					IC50 (NR1/NR2A): 550 µM; IC50 (NR1/NR2C; [2]): 526 µM; IC50 (NR1/NR2B; [5]): 334 µM
O=C(O)CCC(=O)N1N=C(c2c(-c3ccccc3)c3cc(Cl)ccc3[nH]c2=O)CC1c1ccccc1 (centres unmarked) [compound 1149]	32					
O=C(O)CCC(=O)N1N=C(c2c(-c3ccccc3)c3cc(Br)ccc3[nH]c2=O)CC1c1ccccc1F (centres unmarked) [compound 1178]	21					
O=C(O)CCC(=O)N1N=C(c2c(-c3ccccc3)c3cc(Br)ccc3[nH]c2=O)CC1c1ccccc1 (centres unmarked) [compound 1183]	20					
O=c1[nH]c2ccc(Br)cc2c(-c2ccccc2)c1C1=NNC(c2ccc(F)cc2)C1 (centres unmarked) [compound 1248]	> 300					
O=C(Nc1cccc2ccccc12)c1ccc(OC(=S)N2CCOCC2)cc1 [compound 1374]	> 1000					
C=CCN(CC=C)C(=S)Oc1ccc(C(=O)Nc2cccc3ccccc23)cc1 [compound 1380]	279					
